Data reported in US8383656B2, “Thiazolidinedione energy restriction-mimetic agents” (The Ohio State University Research Foundation, priority 2009, dated 2013).
Entries after “also recorded” stand apart in the source; their conditions may differ.

Columns and labels:
Assay type in all cases: cell-based, human
THP-1 cells = test: MTT viability of THP-1 cells; settings: at the concentrations used for IL-6 ELISA (dose range b224, 10 μM b226, 1 μM b229)
AMPK = test: Western blot of AMPK phosphorylation in LPS-treated THP-1 macrophages; settings: 10 μM, 6 h, LPS-treated THP-1
Experimental: Western blotting. THP-1 cells were lysed in SDS-sample buffer after washing with iced-PBS buffer, and then heated at 95° C. for 20 minutes. Protein extracts were prepared using M-PER mammalian protein extraction reagent (Pierce, Rockford, Ill.), containing freshly added 1% phosphatase and protease inhibitor cocktails (Calbiochem). After centrifugation of lysates at 13000 g for 10 min, supernatants were collected, and the protein concentration in each sample was determined by protein assay (Bio-Rad). Protein extracts were then suspended in 2×SDS sample buffer, separated by electrophoresis in 10% SDS-polyacrylamide gels, and transferred to nitrocellulose membranes using a semidry transfer cell. The transblotted membrane was washed twice with Tris-buffered saline containing 0.1% Tween-20 (TBST). After blocking with TBST containing 5% nonfat milk for 1 h, the membrane was incubated with primary antibodies: p172Thr-AMPK, AMPK, p705Tyr-STAT3 and STAT3 (Cell Signaling Technology; Beverly, Mass.); p389Thr-p70S6K and p70S6K (Santa Cruz Biotechnology; Santa Cruz, Calif.), each at 1:1,000 dilution in 1% TBST-nonfat milk at 4° C. overnight. After incubation with the primary antibody, the membrane was washed three times with TBST for a total of 30 min, followed by incubation with horseradish peroxidase-conjugated goat anti-mouse IgG (diluted 1:2500) for 1 h at room temperature. […]

[1] = system: LPS-stimulated IL-6 production in THP-1 macrophages; test: ELISA of LPS-stimulated IL-6 production in THP-1 macrophages; settings: 10 μM, 6 h, LPS-stimulated THP-1
Experimental: Cells and cell culture. THP-1 monocytic cells were purchased from the American Type Culture Collection (Rockville, Md.), and maintained with L-glutamine-containing RPMI 1640 supplemented with 10% fetal bovine serum (FBS), 0.25% glucose, 0.01% sodium pyruvate, 50 μM 2-mercaptoethanol, and 0.1 ml/ml penicillin/streptomycin/L-glutamine. Differentiation of THP-1 monocytes into macrophages was carried out by exposure to PMA (50 nM) in the aforementioned RPMI 1640 medium for 24 h. Colon-26 (C-26) adenocarcinoma cells were provided by a researcher at The Ohio State University. The C-26 cells were maintained in RPMI 1640 medium supplemented with 5% FBS and 1% penicillin/streptomycin.
ELISA. IL-6 release by differentiated THP-1 macrophages in response to 10 ng/ml of LPS was analyzed by using the IL-6 ELISA kit (Cayman Chemical Co.; Ann Arbor, Mich.) according to the manufacturer's instruction in triplicate. The effect of each test compound on LPS-stimulated IL-6 release is presented as percent inhibition and was calculated using the following formula: percentage inhibition=100%×{1−[(O.D. of sample−O.D. of control)/(O.D. of LPS−O.D. of control)]}.

## CC1(COc2ccc(C=C3SC(=O)NC3=O)cc2)CCCCC1 [compound 62]
THP-1 cells
  effect on viability of THP-1 cells: neither agent inhibited the viability of THP-1 cells
AMPK
  AMPK activation (p-AMPK level): effective in elevating the level of p-AMPK; also recorded: modest activities
[1]
  effect on LPS-stimulated IL-6 production: modest activities
